Tests used:
[1] = target: T1, wild-type human cardiac sodium channel, hNav1.5 (Homo sapiens, UniProt Q14524); assay: Peak INa screening assay (tonic and use-dependent block); format: cell-based; details: for inhibition at 1 µM: compound at 1 μM
Method in brief: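 Whole-cell automated patch clamp (QPatch) at 23–25°C on HEK293 cells stably expressing hNav1.5 alpha subunit only, with CsF/CsCl pipette solution, pH 7.4. Compound at 1 μM in extracellular solution; bath Na+ could be cut to 20 mM with a nonpermeant cation. Tonic block measured at 0.1 Hz, use-dependent block at 3 Hz.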

[2] = target: T1, wild-type human cardiac sodium channel, hNav1.5; assay: Late INa screening assay (QPatch whole cell patch clamp, HEK293); format: cell-based
Method in brief: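 HEK293 stably expressing hNav1.5 without beta subunits, recorded at 23-25° C. Late current was induced by 10 μM tefluthrin. Cells were depolarized from −120 mV to −20 mV for 250 ms at 0.1 Hz. Compounds were tested at 1 μM in extracellular solution, with baseline taken in 0Na-ECF; output is percent block of late INa.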

[3] = tonic block of peak INa, 0.1 Hz, read-out: Peak TB 1 μM
[4] = use-dependent block of peak INa, 3 Hz, read-out: Peak UDB 1 μM
[5] = HEK293, % Inhibition at 1 uM, read-out: Late INa*
[6] = HEK293, percent block of late INa, compound at 1 μM, 10 μM Tefluthrin, read-out: Late INa 1 μM

T1 sequence (Q14524 whole entry): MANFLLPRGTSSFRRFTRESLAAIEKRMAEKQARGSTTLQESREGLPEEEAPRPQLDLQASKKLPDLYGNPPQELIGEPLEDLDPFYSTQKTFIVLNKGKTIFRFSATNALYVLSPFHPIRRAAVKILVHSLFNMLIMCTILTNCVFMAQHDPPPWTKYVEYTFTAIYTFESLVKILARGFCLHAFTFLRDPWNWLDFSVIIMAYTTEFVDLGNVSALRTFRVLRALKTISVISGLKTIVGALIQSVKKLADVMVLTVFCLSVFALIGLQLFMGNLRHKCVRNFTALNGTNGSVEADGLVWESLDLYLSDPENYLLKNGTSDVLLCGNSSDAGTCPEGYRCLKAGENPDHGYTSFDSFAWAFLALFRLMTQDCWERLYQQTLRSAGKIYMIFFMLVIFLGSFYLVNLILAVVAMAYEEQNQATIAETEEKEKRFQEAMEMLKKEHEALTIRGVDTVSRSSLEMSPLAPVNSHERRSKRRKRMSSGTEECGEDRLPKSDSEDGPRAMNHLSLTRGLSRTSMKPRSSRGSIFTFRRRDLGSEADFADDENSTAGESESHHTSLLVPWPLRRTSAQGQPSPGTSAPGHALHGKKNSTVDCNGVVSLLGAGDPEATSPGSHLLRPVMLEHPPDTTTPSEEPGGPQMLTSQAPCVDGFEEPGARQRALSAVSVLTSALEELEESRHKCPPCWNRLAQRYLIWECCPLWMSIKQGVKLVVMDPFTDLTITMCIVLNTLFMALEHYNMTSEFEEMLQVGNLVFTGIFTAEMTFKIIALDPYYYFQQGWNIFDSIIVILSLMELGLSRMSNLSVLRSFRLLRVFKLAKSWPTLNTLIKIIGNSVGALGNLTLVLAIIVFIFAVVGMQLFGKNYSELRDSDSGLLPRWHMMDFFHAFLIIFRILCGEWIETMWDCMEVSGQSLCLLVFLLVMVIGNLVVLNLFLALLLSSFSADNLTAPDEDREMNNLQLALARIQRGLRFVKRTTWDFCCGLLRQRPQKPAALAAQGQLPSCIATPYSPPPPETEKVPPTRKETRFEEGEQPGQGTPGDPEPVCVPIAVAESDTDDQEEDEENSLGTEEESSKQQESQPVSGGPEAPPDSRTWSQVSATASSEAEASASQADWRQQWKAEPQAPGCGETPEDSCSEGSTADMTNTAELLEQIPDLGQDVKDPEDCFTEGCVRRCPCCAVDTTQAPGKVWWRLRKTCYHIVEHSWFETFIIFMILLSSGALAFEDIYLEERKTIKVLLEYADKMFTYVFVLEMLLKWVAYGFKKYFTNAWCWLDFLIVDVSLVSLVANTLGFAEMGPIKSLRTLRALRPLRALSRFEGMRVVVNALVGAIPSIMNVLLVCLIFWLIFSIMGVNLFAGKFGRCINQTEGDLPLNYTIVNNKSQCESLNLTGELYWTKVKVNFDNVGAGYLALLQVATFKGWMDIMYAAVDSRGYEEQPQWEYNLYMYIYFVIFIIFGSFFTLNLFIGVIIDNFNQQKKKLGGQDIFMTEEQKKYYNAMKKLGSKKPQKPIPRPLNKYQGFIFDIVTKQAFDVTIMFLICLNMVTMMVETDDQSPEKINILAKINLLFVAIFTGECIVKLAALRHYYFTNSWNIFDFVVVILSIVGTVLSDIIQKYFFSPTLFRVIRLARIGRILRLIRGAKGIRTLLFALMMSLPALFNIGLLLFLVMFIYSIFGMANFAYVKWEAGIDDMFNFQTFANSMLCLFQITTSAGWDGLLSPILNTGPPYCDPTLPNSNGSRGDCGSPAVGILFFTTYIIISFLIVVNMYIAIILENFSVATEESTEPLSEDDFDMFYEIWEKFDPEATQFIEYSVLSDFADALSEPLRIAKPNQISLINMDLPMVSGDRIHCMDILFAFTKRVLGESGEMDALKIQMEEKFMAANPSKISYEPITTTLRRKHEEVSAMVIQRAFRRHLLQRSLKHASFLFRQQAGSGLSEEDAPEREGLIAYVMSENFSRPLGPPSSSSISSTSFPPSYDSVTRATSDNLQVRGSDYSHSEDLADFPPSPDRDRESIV

Compound | inhibition at 1 µM [1, 3] | inhibition at 1 µM [1, 4] | inhibition at 1 µM [2, 5] | inhibition at 1 µM [2, 6] | peak INa TB ([1]; measured at 1 μM) | peak INa UDB ([1]; measured at 1 μM)
O=C1CN(Cc2ccccc2)C(=O)c2cc(-c3ccc(C(F)(F)F)cc3)ccc2N1 [Compound X-8, 4-benzyl-7-(4-(trifluoromethyl)phenyl)-3,4-dihydro-1H-benzo[e][1,4]diazepine-2,5-dione] | 6% | 10% | 50% | 50% | – | –
O=C1c2cc(-c3ccc(C(F)(F)F)cc3)ccc2OC[C@H]2CN(CC(F)F)CCN12 [II-22, (R)-2-(2,2-difluoroethyl)-8-(4-(trifluoromethyl)phenyl)-3,4,12,12a-tetrahydro-1H-benzo[f]pyrazino[2,1-c][1,4]oxazepin-6(2H)-one] | – | – | 30% | 30% | – | –
O=C1c2cc(-c3ccc(OC(F)(F)F)cc3)ccc2OCCN1Cc1ncccn1 [II-73, 4-(pyrimidin-2-ylmethyl)-7-(4-(trifluoromethoxy)phenyl)-3,4-dihydrobenzo[f][1,4]oxazepin-5(2H)-one] | – | – | 42% | 42% | – | –
O=C1c2cc(-c3ccc(C(F)(F)F)cc3)ccc2OC[C@H]2CN(CC(F)(F)F)CCN12 [II-83, (R)-2-(2,2,2-trifluoroethyl)-8-(4-(trifluoromethyl)phenyl)-3,4,12,12a-tetrahydro-1H-benzo[f]pyrazino[2,1-c][1,4]oxazepin-6(2H)-one] | – | – | 31% | 31% | – | –
O=C1c2cc(-c3ccc(Cl)cc3)ccc2OCCN1Cc1ncccn1 [II-88, 7-(4-chlorophenyl)-4-(pyrimidin-2-ylmethyl)-3,4-dihydrobenzo[f][1,4]oxazepin-5(2H)-one] | – | – | 41% | 41% | – | –
CC(C)(C)c1ccc(-c2ccc3c(c2)C(=O)N(Cc2ncccn2)CCO3)cc1 [II-98, 7-(4-tert-butylphenyl)-4-(pyrimidin-2-ylmethyl)-3,4-dihydrobenzo[f][1,4]oxazepin-5(2H)-one] | – | – | 39% | 39% | – | –
O=C1c2cc(-c3ccc(C(F)(F)F)cc3F)ccc2OCCN1Cc1ncccn1 [II-105, 7-(2-fluoro-4-(trifluoromethyl)phenyl)-4-(pyrimidin-2-ylmethyl)-3,4-dihydrobenzo[f][1,4]oxazepin-5(2H)-one] | 9% | 11% | 45% | 45% | 9% | 11%
O=C1c2cc(-c3ccc(C(F)(F)F)cc3Cl)ccc2OCCN1Cc1ncccn1 [II-110, 7-(2-chloro-4-(trifluoromethyl)phenyl)-4-(pyrimidin-2-ylmethyl)-3,4-dihydrobenzo[f][1,4]oxazepin-5(2H)-one] | – | – | 35% | 35% | – | –
O=C1c2cc(-c3ccc(Cl)cc3F)ccc2OCCN1Cc1ncccn1 [II-117, 7-(4-chloro-2-fluorophenyl)-4-(pyrimidin-2-ylmethyl)-3,4-dihydrobenzo[f][1,4]oxazepin-5(2H)-one] | – | – | 37% | 37% | – | –
O=C1c2cc(-c3ccc(C(F)(F)F)cc3)ccc2OCCN1Cc1cn2ccccc2n1 [II-129, 4-(imidazo[1,2-a]pyridin-2-ylmethyl)-7-(4-(trifluoromethyl)phenyl)-3,4-dihydrobenzo[f][1,4]oxazepin-5(2H)-one] | – | – | 33% | 33% | – | –
O=C(c1ncccn1)N1CCOc2ccc(-c3ccc(OC(F)(F)F)cc3)cc2C1 [III-1, pyrimidin-2-yl(7-(4-(trifluoromethoxy)phenyl)-2,3-dihydrobenzo[f][1,4]oxazepin-4(5H)-yl)methanone] | – | – | 33% | 33% | – | –
O=C1c2cc(C#Cc3ccc(OC(F)(F)F)cc3)ccc2OCCN1Cc1ncccn1 [VIII-4, 4-(pyrimidin-2-ylmethyl)-7-((4-(trifluoromethoxy)phenyl)ethynyl)-3,4-dihydrobenzo[f][1,4]oxazepin-5(2H)-one] | 12% | 19% | 61% | 61% | – | –
O=C1c2cc(C#Cc3ccc(C(F)(F)F)cc3)ccc2OCCN1Cc1ncccn1 [VIII-6, 4-(pyrimidin-2-ylmethyl)-7-((4-(trifluoromethyl)phenyl)ethynyl)-3,4-dihydrobenzo[f][1,4]oxazepin-5(2H)-one] | – | – | 38% | 38% | – | –
